Consider 18 compounds from patent publication US20260356860A1, “2-SUBSTITUTED 3,4A,5,7,8,8A-HEXAHYDRO-4H-THIOPYRANO[4,3-DJPYRIMIDIN-4-ONES FOR WOUND TREATMENT” (priority 2022, published 2026).

The test system of data set [1] is HEK293 SuperTOPFlash reporter cells, Wnt promoter. Nature of the data set: HEK CELL Wnt Assay (luciferase reporter). The format is cell-based. Particulars: for IC50: serial dilutions, with or without 50 ng/mL Wnt3a, 18 h. As to the method:
In order to determine the effect of the compounds of Formula (I) on Wnt inhibition, an in vitro assay using HEK293 SuperTOPFlash reporter cells, with the Wnt promoter driving a luciferase reporter gene, were utilized. 40,000 HEK293 SuperTOPFlash reporter cells were seeded, per well, in a 48 well plate for 24 hours, prior to administration of serial dilutions of the compound of Formula (I) to individual wells. Serial dilutions ranging from […] to 1 nM of the compound of Formula (I) were added with or without 50 ng/mL Wnt3a (Time Biosciences) and allowed to incubate with the reporter cells for 18 hours. Reporter cells with no treatment were used as negative control.
For orientation: Reporter assays use an easily measured gene product as a stand-in for the process of interest.

A further data set deals with T1, Tankyrase 2 (TNKS2) (Homo sapiens, UniProt Q9H2K2).
T1 sequence (Q9H2K2 1-1166): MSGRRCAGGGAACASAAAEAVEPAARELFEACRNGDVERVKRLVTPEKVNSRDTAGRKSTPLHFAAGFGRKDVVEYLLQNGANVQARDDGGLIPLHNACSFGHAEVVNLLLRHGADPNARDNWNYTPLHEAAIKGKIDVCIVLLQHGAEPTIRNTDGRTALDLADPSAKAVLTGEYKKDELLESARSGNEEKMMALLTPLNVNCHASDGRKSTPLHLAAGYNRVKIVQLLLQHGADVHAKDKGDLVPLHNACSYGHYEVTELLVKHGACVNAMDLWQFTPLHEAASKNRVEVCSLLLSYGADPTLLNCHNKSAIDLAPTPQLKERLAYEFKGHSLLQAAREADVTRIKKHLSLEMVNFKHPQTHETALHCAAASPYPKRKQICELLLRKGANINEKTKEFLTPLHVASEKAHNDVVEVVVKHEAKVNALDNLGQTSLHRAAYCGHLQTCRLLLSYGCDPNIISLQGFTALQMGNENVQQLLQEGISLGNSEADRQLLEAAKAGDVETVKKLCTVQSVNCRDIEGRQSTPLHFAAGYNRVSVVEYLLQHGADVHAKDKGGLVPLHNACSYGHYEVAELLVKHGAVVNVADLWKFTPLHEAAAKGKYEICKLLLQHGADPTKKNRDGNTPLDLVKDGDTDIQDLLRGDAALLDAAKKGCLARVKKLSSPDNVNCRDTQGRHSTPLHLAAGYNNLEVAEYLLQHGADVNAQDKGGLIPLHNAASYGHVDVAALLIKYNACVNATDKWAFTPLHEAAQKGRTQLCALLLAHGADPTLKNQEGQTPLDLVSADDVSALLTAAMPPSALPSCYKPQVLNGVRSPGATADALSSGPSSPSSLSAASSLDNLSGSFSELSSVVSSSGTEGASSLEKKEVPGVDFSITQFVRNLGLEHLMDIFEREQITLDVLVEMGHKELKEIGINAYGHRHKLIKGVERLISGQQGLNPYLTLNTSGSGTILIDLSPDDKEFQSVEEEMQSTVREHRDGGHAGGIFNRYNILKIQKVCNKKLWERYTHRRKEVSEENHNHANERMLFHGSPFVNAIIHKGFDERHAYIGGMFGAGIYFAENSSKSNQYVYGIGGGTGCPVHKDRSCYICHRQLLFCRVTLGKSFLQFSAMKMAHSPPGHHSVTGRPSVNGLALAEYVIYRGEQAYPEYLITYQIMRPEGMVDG
Kind of data set: TNK2 Binding Assay (Tankyrase 2 ribosylation, chemiluminescence). The format is biochemical. As to the method:
Tankyrase 2 assay (n=3) was performed with the following steps: step 1, coating a 96-well plate with 50 μL/well of histone solution; step 2, conducting ribosylation reaction; and step 3, detection.
Step 1: Coating a 96-Well Plate with 50 μL/Well of Histone Solution.
A 5× histone mixture was diluted 1:5 with PBS to make a 1× histone in PBS mixture. 50 μL of the histone mixture was added to each well and incubated at 4° C. overnight. The plate was washed three times using 200 μL PBST buffer (1×PBS containing 0.05% Tween*20 (polysorbate 20) per well. The plate was tapped onto a clean paper towel to remove the liquid. The wells were blocked by adding 200 μL of blocking buffer 3 to each well. The plate was incubated at room temperature for at least 90 minutes. The plate was washed three times with 200 μL PBST buffer. The plate was tapped onto a clean paper towel to remove the liquid.
A fresh solution of 10 mM DTT in water was prepared.
A master mix was prepared and delivered to each well (25 μL/well). Master mix delivered to each well: (2.5 μL of 10×PARP assay buffer (purchased from BPS Bioscience)+2.5 μL of PARP substrate mixture 2+17.5 μL of water+2.5 μL of 10 mM fresh DTT). The concentration of DTT in the master mix was 1 mM. 25 μL of master mix was added to each well.
1×PARP buffer with DTT was prepared. 10×PARP assay buffer was diluted to 1×PARP assay buffer containing DTT by adding 1 volume of 10×PARP assay buffer+1 volume of 10 mM DTT+8 volumes of water. The concentration of DTT in the 1×PARP assay buffer was 1 mM.
5 μL of a test inhibitor was added to each well labeled as “Test Inhibitor.” For the “Positive Control,” the PARP inhibitor, XAV939, was used. For the negative control, no inhibitor is added to the assay mix.
The Tankyrase 2 (TNKS2) enzyme on ice was thawed. The tube containing the enzyme was spun briefly to recover the full content of the tube. The amount of TNKS2 enzyme required for the assay was calculated and the enzyme was diluted to 0.5 ng/μL with 1×PARP assay buffer with DTT. 16) The final concentration of TNKS2 enzyme in the assay was 2 nM. The reaction was initiated by adding 10 μL of diluted TNKS2 enzyme to each well designated “Positive Control” and “Test Inhibitor.” To each well designated as “Blank,” 10 μL of 1×PARP assay buffer with DTT was added. The plate was incubated at room temperature for 1 hour. The plate was washed three times with 100 μL of PBST buffer and the plate was tapped onto a clean paper towel.
1) Streptavidin-HRP was diluted 1:50 in Blocking buffer (purchased from BPS Bioscience) 3.50 μL of diluted Streptavidin-RP was added to each well and incubated for 30 minutes at room temperature. The plate was washed three times with 100 μL of PBST buffer and tapped onto a clean paper towel. Just before use, 1 volume of ELISA ECL Substrate A and 1 volume of ELISA ECL Substrate B were mixed on ice; and 100 μL was added to each well. Immediately, the plate was read in a luminometer or microtiter-plate reader capable of reading chemiluminescence. The “Blank” value was subtracted from all other values.

One may read the IC50 as the concentration that inhibits the measured activity by half. Low values mean higher potency, high ones lower potency. On to `O=c1[nH]c(-c2ccc3c(c2)COB3O)nc2c1CSCC2` [Compound 3, 2-(1-hydroxy-1,3-dihydrobenzo[c][1,2]oxaborol-5-yl)-7,8-dihydro-3H-thiopyrano [4,3-d]pyrimidin-4 (5H)-one], for which the IC50 in data set [1] worked out at 7.5 µM; on Tankyrase 2 (TNKS2) it was 0.028 µM.

For `O=c1[nH]c(-c2ccc(-c3nc4c(c(=O)[nH]3)CSCC4)cc2)no1` [Compound 4, 3-(4-(4-oxo-3,5,7,8-tetrahydro-4H-thiopyrano[4,3-d]pyrimidin-2-yl)phenyl)-1,2,4-oxadiazol-5 (4H)-one], the concentration for half-maximal inhibition (IC50) was above 10 µM in data set [1] and 0.013 µM on Tankyrase 2 (TNKS2).

On to `O=c1[nH]c(/C=C/c2ccc(C(F)(F)F)c(B(O)O)c2)nc2c1CSCC2` [Compound 5, (E)-(5-(2-(4-oxo-3,5,7,8-tetrahydro-4H-thiopyrano[4,3-d]pyrimidin-2-yl)vinyl)-2-(trifluoromethyl)phenyl)boronic acid], for which half-maximal inhibition in data set [1] (IC50) required 5 µM.

Turning to `O=c1[nH]c(/C=C/c2ccc(C(F)(F)F)cc2)nc2c1CSCC2` [Compound 6, (E)-2-(4-(trifluoromethyl)styryl)-3,5,7,8-tetrahydro-4H-thiopyrano[4,3-d]pyrimidin-4-one], the IC50 came to 2 µM in data set [1] and 2.5 µM on Tankyrase 2 (TNKS2).

For `O=c1[nH]c(-c2ccc(-c3cnc(OCCO)nc3)cc2)nc2c1CSCC2` [Compound 11, 2-(4-(2-(2-hydroxyethoxy)pyrimidin-5-yl)phenyl)-3,5,7,8-tetrahydro-4H-thiopyrano[4,3-d]pyrimidin-4-one], in data set [1], the “solubility remark in HEK CELL Wnt assay” value is “solubility issue” and half-maximal inhibition (IC50) was put at 0.1 µM. This compound gave a concentration for half-maximal inhibition (IC50) on Tankyrase 2 (TNKS2) of 0.021 µM.

As to `CC(C)(OCCO)c1ccc(-c2ccc(-c3nc4c(c(=O)[nH]3)CSCC4)cc2)cc1` [Compound 12, 2-(4′-(2-(2-hydroxyethoxy)propan-2-yl)-[1,1′-biphenyl]-4-yl)-3,5,7,8-tetrahydro-4H-thiopyrano[4,3-d]pyrimidin-4-one], the IC50 in data set [1] is 0.003 µM; at Tankyrase 2 (TNKS2), 0.0065 µM.

Regarding `[2H]C1([2H])CSCc2c1nc(-c1ccc(C(F)(F)F)cc1)[nH]c2=O` [Compound 13, 2-(4-(trifluoromethyl)phenyl)-3,5,7,8-tetrahydro-4H-thiopyrano[4,3-d]pyrimidin-4-one-8,8-d2], in data set [1], the IC50 came out at 0.004 µM.

Turning to `O=c1[nH]c(-c2cc(F)c(B(O)O)c(F)c2)nc2c1CSCC2` [Compound 14, (2,6-difluoro-4-(4-oxo-3,5,7,8-tetrahydro-4H-thiopyrano[4,3-d]pyrimidin-2-yl)phenyl)boronic acid], the IC50 in data set [1] was found to be 8 µM; on Tankyrase 2 (TNKS2), 0.011 µM.

Take `COCCOC(C)(C)c1c(F)cc(-c2nc3c(c(=O)[nH]2)CSCC3)cc1F` [Compound 16, 2-(3,5-difluoro-4-(2-(2-methoxyethoxy)propan-2-yl)phenyl)-3,5,7,8-tetrahydro-4H-thiopyrano[4,3-d]pyrimidin-4-one]: the IC50 in data set [1] stood at 0.4 µM; on Tankyrase 2 (TNKS2), 0.05 µM.

Turning to `COCCOC(C)(C)c1ccc(-c2nc3c(c(=O)[nH]2)CSCC3)cc1` [Compound 17, 2-(4-(2-(2-methoxyethoxy)propan-2-yl)phenyl)-3,5,7,8-tetrahydro-4H-thiopyrano[4,3-d]pyrimidin-4-one], the half-maximal inhibitory concentration (IC50) in data set [1] was 0.06 µM; at Tankyrase 2 (TNKS2), 0.003 µM.

With `O=c1[nH]c(-c2ccc(-c3ccc(Br)nc3)nc2)nc2c1CSCC2` [Compound 19, 2-(6′-bromo-[2,3′-bipyridin]-5-yl)-3,5,7,8-tetrahydro-4H-thiopyrano[4,3-d]pyrimidin-4-one], the values for the half-maximal inhibitory concentration (IC50) (in data set [1]; on Tankyrase 2 (TNKS2)) were 2.5 µM and 0.04 µM, respectively.

For `O=c1[nH]c(-c2cc(F)c(-c3ccc(Br)nc3)c(F)c2)nc2c1CSCC2` [Compound 21, 2-(4-(6-bromopyridin-3-yl)-3,5-difluorophenyl)-3,5,7,8-tetrahydro-4H-thiopyrano[4,3-d]pyrimidin-4-one], the 50% inhibitory concentration (IC50) came to 2 µM in data set [1] and 0.012 µM at Tankyrase 2 (TNKS2).

For `O=c1[nH]c(-c2ccc(-c3ccc(B(O)O)cn3)cc2)nc2c1CSCC2` [Compound 22, (6-(4-(4-oxo-3,5,7,8-tetrahydro-4H-thiopyrano[4,3-d]pyrimidin-2-yl)phenyl)pyridin-3-yl)boronic acid], the concentration for half-maximal inhibition (IC50) in data set [1] worked out at 0.25 µM; at Tankyrase 2 (TNKS2), 0.004 µM.

For the compound `O=c1[nH]c(-c2ccc(-c3ncc(B(O)O)cn3)cc2)nc2c1CSCC2` [Compound 24, (2-(4-(4-oxo-3,5,7,8-tetrahydro-4H-thiopyrano[4,3-d]pyrimidin-2-yl)phenyl)pyrimidin-5-yl)boronic acid], the results for the concentration for half-maximal inhibition (IC50) (in data set [1]; on Tankyrase 2 (TNKS2)) were 0.5 µM and 0.003 µM, respectively.

Regarding `O=c1[nH]c(-c2c(F)cc(-c3ccc(B(O)O)cc3)cc2F)nc2c1CSCC2` [Compound 25, (3′,5′-difluoro-4′-(4-oxo-3,5,7,8-tetrahydro-4H-thiopyrano[4,3-d]pyrimidin-2-yl)-[1,1′-biphenyl]-4-yl)boronic acid], the values for the IC50 (in data set [1]; at Tankyrase 2 (TNKS2)) were 2.5 µM and 0.063 µM, respectively.

For the compound `O=c1[nH]c(-c2ccc(-c3ccc(B(O)O)cc3)cc2O)nc2c1CSCC2` [Compound 26, (3′-hydroxy-4′-(4-oxo-3,5,7,8-tetrahydro-4H-thiopyrano[4,3-d]pyrimidin-2-yl)-[1,1′-biphenyl]-4-yl)boronic acid], the half-inhibitory concentration (IC50) was 0.652 µM in data set [1] and 0.024 µM on Tankyrase 2 (TNKS2).

For `O=c1[nH]c(-c2ccc(-c3ccc(B(O)O)c(O)c3)cc2)nc2c1CSCC2` [Compound 27, (3-hydroxy-4′-(4-oxo-3,5,7,8-tetrahydro-4H-thiopyrano[4,3-d]pyrimidin-2-yl)-[1,1′-biphenyl]-4-yl)boronic acid], the IC50 in data set [1] was found to be 0.036 µM; at Tankyrase 2 (TNKS2) it was 0.002 µM.

Consider `N#Cc1ccc(-c2nc3c(c(=O)[nH]2)CSCC3)cc1` [Compound 43, 4-(4-oxo-3,5,7,8-tetrahydro-4H-thiopyrano[4,3-d]pyrimidin-2-yl)benzonitrile], for which, in data set [1], it took 1 µM to reach half-maximal inhibition (IC50).
